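Briefly, cells in 96-well plates were exposed to five compound concentrations for 48 h, and endpoints were estimated by linear interpolation. GI50 = concentration required for 50% inhibition of growth. The concentration for full growth arrest is given as TGI.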 Some results are limits rather than exact numbers.

Holding throughout (test): NCI tumour cell line growth inhibition, 48 h
The subject of assay [1] is RPMI-8226 leukemia.
Assay [2] concerns IGROV1 ovarian.
Assay [3] has as its system CCRF-CEM leukemia.
Assay [4] has as its system A549 NSCLC.
The test system of assay [5] is SF-295 CNS.
Assay [6] relates to TK-10 renal.
In assay [7] the test system is HOP-92 NSCLC.
Assay [8] has as its system HL-60(TB) leukemia.
In assay [9] the test system is NCI-H460 lung.
For assay [10], the system named is MOLT-4 leukemia.

In the case of `CC(=O)c1c2c(cc3c1CC1(Cc4ccccc4C1=O)C3)CCC2` (stereo not given), the TGI in assay [1] is 39.1 µM; in assay [2], > 100 µM; in [3] it was > 100 µM; in assay [4], > 100 µM; in [5], > 100 µM; in [6], > 100 µM. For the same compound, the TGI in [7] is 49.5 µM; in assay [8], 33.7 µM; in [9], > 100 µM; in assay [10], 29.1 µM.

Regarding `CNn1c(-c2ccccc2)n[nH]c1=O`, the TGI in assay [1], in assay [2], in assay [3], in assay [4], in [5] and in assay [6] was > 100 µM each time. For the same compound, the TGI in [7], in assay [8], in assay [9] and in assay [10] was > 100 µM throughout.

With `Nc1nc(N)c2[nH]c(CNc3ccc(C(=O)O)cc3)nc2n1`, the TGI in assay [1], in assay [2], in [3], in [4], in assay [5] and in assay [6] was > 100 µM in each case. The TGI in assay [7], in assay [8], in assay [9] and in assay [10] was > 100 µM each time.

As to `COc1cc(C[S+]2CCCC2)c(SC)cc1C[S+]1CCCC1`, the TGI in [1], in [2], in assay [3], in [4], in assay [5] and in assay [6] was > 100 µM each time. Besides, the TGI in [7], in assay [8], in assay [9] and in [10] was > 100 µM throughout.

`O=C(CC(=O)Nc1cccc(C(=O)O)c1)Nc1cccc(C(=O)O)c1`: the TGI in [1], in assay [2], in assay [3], in [4], in assay [5] and in assay [6] was > 100 µM in each case. Besides, the TGI in assay [7], in [8], in [9] and in assay [10] was > 100 µM throughout.

On to `Cc1ccc(S(=O)(=O)N/N=C/C(=C/c2ccc(Cl)cc2)CC(/C=N/NS(=O)(=O)c2ccc(C)cc2)=C\c2ccc(Cl)cc2)cc1`, for which the TGI is 9.11 µM in assay [1]; 35.7 µM in assay [2]; 8.8 µM in assay [3]; > 100 µM in assay [4]; 55 µM in [5]; 45.6 µM in assay [6]. The TGI is 12.4 µM in assay [7], 8.15 µM in [8], 30.3 µM in [9] and 6.62 µM in [10].

As to `O=C(O)c1nc(-c2ccccc2)ncc1-c1nnnn1-c1ccccc1`, the TGI in assay [1], in assay [2], in assay [3], in [4], in assay [5] and in assay [6] was > 100 µM throughout. Further, the TGI in [7], in [8], in assay [9] and in [10] was > 100 µM each time.

With `COC(=O)C(C)(NC(=O)C(CC(=O)OC(C)(C)C)NC(=O)OC(C)(C)C)c1ccccc1` (stereo not given), the TGI in assay [1], in assay [2], in [3], in assay [4], in [5] and in assay [6] was > 100 µM throughout. Besides, the TGI in assay [7], in assay [8], in [9] and in assay [10] was > 100 µM each time.

Take `C=C1CC(c2ccc(OCCCN3C(=O)c4ccccc4C3=O)c(OC)c2)OC1=O` (stereo not given): the TGI in [1] turned out to be 6.69 µM; in assay [2], 8.41 µM; in [3], 3.79 µM; in assay [4], 27 µM; in [5], 26.3 µM; in assay [6], 10.8 µM. For the same compound, the TGI in assay [7] came out at 3.51 µM; in [8] it was 2.8 µM; in [9], 14.5 µM; in assay [10], 2.72 µM.

Turning to `O=C(O)/C=N\Nc1nc2ccccc2[nH]1`, the TGI in assay [1], in assay [2], in assay [3], in [4], in assay [5] and in assay [6] was > 100 µM in each case. In addition, the TGI in assay [7], in [8], in [9] and in assay [10] was > 100 µM in each case.

For the compound `COc1ccc2nc3ccc(OC)cc3c(S(=O)CCCl)c2c1` (stereo not given), the TGI in assay [1] is 4.9 µM; in assay [2], 6.87 µM; in assay [3] it was > 23.8 µM; in assay [4], 48 µM; in [5], 45.2 µM; in assay [6] it was 8.26 µM. The TGI in assay [7] is 10.8 µM; in assay [8], 6.86 µM; in [9] it was > 63.7 µM; in assay [10] it was > 20.7 µM.

With `COc1cc(/C=C2\CCC(C)C3C2=NN(C(C)=O)C3c2cc(OC)c(OC)c(OC)c2)cc(OC)c1OC` (stereo not given), the TGI was > 100 µM in assay [1]; 9.7 µM in [2]; > 100 µM in assay [3]; > 100 µM in assay [4]; > 100 µM in assay [5]; > 100 µM in assay [6]. The TGI in [7], in assay [8], in assay [9] and in assay [10] was > 100 µM in each case.

For the compound `COc1ccc(C(C)NNC(=O)c2ccncc2)c(OC)c1` (stereo not given), the TGI in [1], in assay [2], in assay [3], in assay [4], in assay [5] and in assay [6] was > 100 µM each time. Besides, the TGI in assay [7], in assay [8], in assay [9] and in assay [10] was > 100 µM each time.

For the compound `C[C@]12CC[C@H](O)CC1=CC[C@@H]1[C@@H]2CC[C@]2(C)C(=O)[C@@H](N3CCOCC3)C[C@@H]12`, the TGI in [1], in [2], in assay [3], in [4], in assay [5] and in [6] was > 100 µM each time. Also, the TGI in assay [7], in assay [8], in assay [9] and in assay [10] was > 100 µM throughout.

For the compound `O=[N+]([O-])c1cc2oc(COc3ccccc3)nc2cc1Cl`, the TGI was > 100 µM in [1]; > 100 µM in [2]; > 100 µM in assay [3]; > 100 µM in [4]; 38.8 µM in assay [5]; > 100 µM in [6]. The TGI in [7] is > 100 µM; in assay [8], > 100 µM; in assay [9], 53.6 µM; in assay [10] it was > 100 µM.

With `Cc1ccc(/C=N/n2c(=O)[nH]c3ccccc3c2=O)cc1`, the TGI in assay [1], in assay [2], in [3], in assay [4], in assay [5] and in assay [6] was > 100 µM throughout. The TGI in assay [7], in assay [8], in [9] and in [10] was > 100 µM throughout.

For the compound `S=C(NCc1ccccc1)c1nc[nH]c1C(=S)NCc1ccccc1`, the TGI was found to be 35.6 µM in assay [1]; 19.8 µM in [2]; 12.1 µM in assay [3]; 15.1 µM in assay [4]; 17.6 µM in [5]; 23.9 µM in assay [6]. Moreover, the TGI in [7] was 12.3 µM; in assay [8], 25.5 µM; in assay [9], 18.7 µM; in assay [10], 25.4 µM.

With `COc1ccc(CC2c3cc(Oc4cc(CC5c6cc(OC)c(OC)cc6CCN5C)ccc4O)c(OC)cc3CCN2C)cc1` (stereo not given), the TGI was determined as 10.1 µM in [1]; 16.2 µM in [2]; 1.57 µM in assay [3]; 13.4 µM in [4]; 15.4 µM in [5]; 11 µM in assay [6]. Besides, the TGI was determined as 14.6 µM in assay [7], 15.5 µM in assay [8], 14.1 µM in assay [9] and 12.9 µM in assay [10].

As to `COc1cc(C2c3cc4c(cc3OC(N3CCCC3)C2C)OCO4)cc(OC)c1O` (stereo not given), the TGI in [1] is > 100 µM; in [2] it was > 100 µM; in assay [3] it was > 100 µM; in [4], > 100 µM; in [5], 22.3 µM; in assay [6], 58.6 µM. The TGI in assay [7] was > 78.5 µM; in assay [8] it was > 92.7 µM; in assay [9], > 100 µM; in assay [10], > 100 µM.

With `NC(N)=NCCN=C(N)N`, the TGI in assay [1], in assay [2], in [3], in assay [4], in assay [5] and in assay [6] was > 100 µM each time. Further, the TGI in assay [7], in assay [8], in assay [9] and in [10] was > 100 µM throughout.

As for `CC(=O)OCCn1cnc2nc(Nc3ccccc3)nc(Cl)c21`, the TGI in assay [1], in assay [2], in assay [3], in assay [4], in assay [5] and in assay [6] was > 100 µM throughout. Moreover, the TGI in assay [7] is 34.4 µM; in assay [8], > 100 µM; in assay [9], > 100 µM; in [10] it was > 100 µM.

Regarding `NC(=O)C(N)Cc1ccc(O)cn1` (stereo not given), the TGI in assay [1], in assay [2], in [3], in assay [4], in assay [5] and in [6] was > 100 µM each time. Further, the TGI in assay [7], in assay [8], in [9] and in assay [10] was > 100 µM each time.

Turning to `CC(=O)Nc1cc(C(=O)Nc2cc(C(=O)N3CC(CCl)c4c3cc(N)c3ccccc43)nn2C)nn1C` (stereo not given), the TGI was 1.41 µM in assay [1]; 0.851 µM in [2]; 0.0491 µM in assay [3]; 2.85 µM in assay [4]; 4.41 µM in [5]; > 100 µM in assay [6]. Further, the TGI in assay [7] was 0.1 µM; in [8], < 0.0344 µM; in assay [9], 0.13 µM; in assay [10] it was 0.0687 µM.

With `Cc1ccc2c(n1)C(=O)c1[nH]c3ccccc3c1C2=O`, the GI50 in assay [1] is 2.25 µM; in [2], 0.0819 µM; in assay [3], 3.45 µM; in assay [4], 1.61 µM; in [5] it was 0.761 µM; in assay [6], 12 µM. The GI50 was 2.92 µM in assay [7], 2.67 µM in [8], 0.337 µM in assay [9] and 3.25 µM in assay [10]. For the same compound, the TGI in [1] was 12.3 µM; in [2], 4.3 µM; in [3], > 100 µM; in assay [4], 4.37 µM; in assay [5], 2.05 µM; in [6] it was > 100 µM. Further, the TGI is 29 µM in [7], 9.43 µM in [8], 1.63 µM in assay [9] and 18.9 µM in assay [10].

Regarding `COc1ccc(/C=C(/C(=O)c2ccc(Cl)cc2)N2C=CC=CC2=C(C#N)C#N)cc1OC`, the TGI was 8.59 µM in assay [1]; 14.9 µM in assay [2]; 0.665 µM in [3]; 30.4 µM in [4]; > 85.3 µM in [5]; 17.8 µM in [6]. Further, the TGI in assay [7] was 13.4 µM; in [8], 7.79 µM; in assay [9], 25.5 µM; in assay [10], 4.64 µM.

These data come from PubChem BioAssay (NCI).
